# Test results: US8530493B2, “Indolopyridines as Eg5 kinesin modulators” (4SC AG, priority 2006, dated 2013)
# Test system: RKO p21 uninduced (proliferating) colon adenocarcinoma cells
# Assay: Alamar Blue cell viability assay, RKO p21 uninduced (proliferating)
# Format: cell-based
# Settings: Homo sapiens, Table B3, anti-proliferative/cytotoxic activity, 72 hours, read-out: −log EC50 RKO p21 uninduced (proliferating) (converted)
# Method in brief: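 RKO p21 or p27 subclones grown without Ponasterone A, i.e. proliferating, exposed 24 h after seeding to semi-log compound dilutions in DMEM/10% FCS (1% DMSO controls) for 72 h at 37° C. Alamar Blue fluorescence (544/590 nm) read relative to untreated cells; EC50 from dose-response curves, given as −log EC50 (mol/l).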
row,SMILES,EC50
1,"CN(C)CCCN1C(=O)N2[C@H](c3cccc(O)c3)c3[nH]c4ccc(Br)cc4c3C[C@@]2(C)C1=O (racemic) [Example 230, (3aSR,10RS)-6-Bromo-2-(3-dimethylamino-propyl)-10-(3-hydroyx-phenyl)-3a-methyl-3a,4,9,10-tetrahydro-2,9,10a-triaza-cyclopenta[b]fluorene-1,3-dione]",≤ 39.8 nM
2,"C=CCN(C)CCN1C(=O)N2[C@H](c3cccc(O)c3)c3[nH]c4ccc(Br)cc4c3C[C@@]2(C)C1=O (racemic) [Example 381, (3aSR,10RS)-2-[2-(Allyl-methyl-amino)-ethyl]-6-bromo-10-(3-hydroxy-phenyl)-3a-methyl-3a,4,9,10-tetrahydro-2,9,10a-triaza-cyclopenta[b]fluorene-1,3-dione]",39.8 to 251 nM
3,"COCCNCCCN1C(=O)N2[C@H](c3cccc(O)c3)c3[nH]c4ccc(Br)cc4c3C[C@@]2(C)C1=O (racemic) [Example 214, (3aSR,10RS)-6-Bromo-10-(3-hydroxy-phenyl)-2-[3-(2-methoxy-ethylamino)-propyl]-3a-methyl-3a,4,9,10-tetrahydro-2,9,10a-triaza-cyclopenta[b]fluorene-1,3-dione]",≤ 39.8 nM
4,"C[C@@]12Cc3c([nH]c4cc(F)c(Cl)cc34)[C@@H](c3cccc(O)c3)N1C(=O)N(CCCN1CCCCCC1)C2=O (racemic) [Example 483, (3aSR,10RS)-2-(3-Azepan-1-yl-propyl)-6-chloro-7-fluoro-10-(3-hydroyx-phenyl)-3a-methyl-3a,4,9,10-tetrahydro-2,9,10a-triaza-cyclopenta[b]fluorene-1,3-dione]",39.8 to 251 nM
5,"C=CCNCCCN1C(=O)N2[C@H](c3cccc(O)c3)c3[nH]c4ccc(OC(F)F)cc4c3C[C@@]2(C)C1=O (racemic) [Example 206, (3aSR,10RS)-2-(3-Allylamino-propyl)-6-(1,1-difluoro-methoxy)-10-(3-hydroxy-phenyl)-3a-methyl-3a,4,9,10-tetrahydro-2,9,10a-triaza-cyclopenta[b]fluorene-1,3-dione]",39.8 to 251 nM
6,"COc1cc2c3c([nH]c2cc1F)[C@@H](c1cccc(O)c1)N1C(=O)N(CCCNCCO)C(=O)[C@]1(C)C3 (racemic) [Example 305, (3aSR,10RS)-7-Fluoro-2-[3-(2-hydroxy-ethylamino)-propyl]-10-(3-hydroyx-phenyl)-6-methoxy-3a-methyl-3a,4,9,10-tetrahydro-2,9,10a-triaza-cyclopenta[b]fluorene-1,3-dione]",39.8 to 251 nM
7,"CC(C)CNCCCN1C(=O)N2[C@H](c3cccc(O)c3)c3[nH]c4ccc(Br)cc4c3C[C@@]2(C)C1=O (racemic) [Example 213, (3aSR,10RS)-6-Bromo-10-(3-hydroxy-phenyl)-2-(3-isobutylamino-propyl)-3a-methyl-3a,4,9,10-tetrahydro-2,9,10a-triaza-cyclopenta[b]fluorene-1,3-dione]",≤ 39.8 nM
8,"COc1cc2c3c([nH]c2cc1F)[C@@H](c1cccc(O)c1)N1C(=O)N(CCN2CC=CCC2)C(=O)[C@]1(C)C3 (racemic) [Example 265, (3aSR,10RS)-2-[2-(3,6-Dihydro-2H-pyridin-1-yl)-ethyl]-7-fluoro-10-(3-hydroxy-phenyl)-6-methoxy-3a-methyl-3a,4,9,10-tetrahydro-2,9,10a-triaza-cyclopenta[b]fluorene-1,3-dione]",39.8 to 251 nM
9,"C[C@@]12Cc3c([nH]c4ccc(Br)cc34)[C@@H](c3cccc(O)c3)N1C(=O)N(CCCNC1CCC1)C2=O (racemic) [Example 369, (3aSR,10RS)-6-Bromo-2-(3-cyclobutylamino-propyl)-10-(3-hydroxy-phenyl)-3a-methyl-3a,4,9,10-tetrahydro-2,9,10a-triaza-cyclopenta[b]fluorene-1,3-dione]",≤ 39.8 nM
10,"COc1ccc2[nH]c3c(c2c1F)C[C@@]1(C)C(=O)N(CCNC(C)(C)C)C(=O)N1[C@@H]3c1cccc(O)c1 (racemic) [Example 414, (3aSR,10RS)-2-(2-tert-Butylamino-ethyl)-5-fluoro-10-(3-hydroxy-phenyl)-6-methoxy-3a-methyl-3a,4,9,10-tetrahydro-2,9,10a-triaza-cyclopenta[b]fluorene-1,3-dinone]",39.8 to 251 nM
11,"C[C@@]12Cc3c([nH]c4ccc(OC(F)F)cc34)[C@@H](c3cccc(O)c3)N1C(=O)N(CCCN1CC=CCC1)C2=O (racemic) [Example 242, (3aSR,10RS)-6-(1,1-Difluoro-methoxy)-2-[3-(3,6-dihydro-2H-pyridin-1-yl)-propyl]-10-(3-hydroxy-phenyl)-3a-methyl-3a,4,9,10-tetrahydro-2,9,10a-triaza-cyclopenta[b]fluorene-1,3-dione]",≤ 39.8 nM
12,"CC1CCN(CCCN2C(=O)N3[C@H](c4cccc(O)c4)c4[nH]c5cc(F)c(Cl)cc5c4C[C@@]3(C)C2=O)CC1 (racemic) [Example 479, (3aSR,10RS)-6-Chloro-7-fluoro-10-(3-hydroxy-phenyl)-3a-methyl-2-[3-(4-methyl-piperidin-1-yl)-propyl]-3a,4,9,10-tetrahydro-2,9,10a-triaza-cyclopenta[b]fluorene-1,3-dione]",39.8 to 251 nM
13,"C[C@@]12Cc3c([nH]c4ccc(Br)cc34)[C@@H](c3cccc(O)c3)N1C(=O)N(CCCNCC1CC1)C2=O (racemic) [Example 234, (3aSR,10RS)-6-Bromo-2-[3-(cyclopropylmethyl-amino)-propyl]-10-(3-hydroxy-phenyl)-3a-methyl-3a,4,9,10-tetrahydro-2,9,10a-triaza-cyclopenta[b]fluorene-1,3-dione]",≤ 39.8 nM
14,"COCCNCCN1C(=O)N2[C@H](c3cccc(O)c3)c3[nH]c4ccc(OC(F)F)cc4c3C[C@@]2(C)C1=O (racemic) [Example 271, (3aSR,10RS)-6-(1,1-Difluoro-methoxy)-10-(3-hydroxy-phenyl)-2-[2-(2-methoxy-ethylamino)-ethyl]-3a-methyl-3a,4,9,10-tetrahydro-2,9,10a-triaza-cyclopenta[b]fluorene-1,3-dione]",≤ 39.8 nM
15,"C[C@@]12Cc3c([nH]c4ccc(OC(F)F)cc34)[C@@H](c3cccc(O)c3)N1C(=O)N(CCCN1CCCCCC1)C2=O (racemic) [Example 243, (3aSR,10RS)-2-(3-Azepan-1-yl-propyl)-6-(1,1-difluoro-methoxy)-10-(3-hydroxy-phenyl)-3a-methyl-3a,4,9,10-tetrahydro-2,9,10a-triaza-cyclopenta[b]fluorene-1,3-dione]",≤ 39.8 nM
16,"CC(=O)N1CCN(CCN2C(=O)N3[C@H](c4cccc(O)c4)c4[nH]c5cc(F)c(Cl)cc5c4C[C@@]3(C)C2=O)CC1 (racemic) [Example 360, (3aSR,10RS)-2-[2-(4-Acetyl-piperazin-1-yl)-ethyl]-6-chloro-7-fluoro-10-(3-hydroxy-phenyl)-3a-methyl-3a,4,9,10-tetrahydro-2,9,10a-triaza-cyclopenta[b]fluorene-1,3-dione]",39.8 to 251 nM
17,"C[C@@]12Cc3c([nH]c4cc(F)c(Cl)cc34)[C@@H](c3cccc(O)c3)N1C(=O)N(CCCNCCO)C2=O (racemic) [Example 461, (3aSR,10RS)-6-Chloro-7-fluoro-2-[3-(2-hydroxy-ethylamino)-propyl]-10-(3-hydroxy-phenyl)-3a-methyl-3a,4,9,10-tetrahydro-2,9,10a-triaza-cyclopenta[b]fluorene-1,3-dione]",39.8 to 251 nM
